Data published in ChEMBL document CHEMBL4665642, “Anticancer profile of newly synthesized BRAF inhibitors possess 5-(pyrimidin-4-yl)imidazo[2,1-b]thiazole scaffold” (Bioorg Med Chem, 2019).

Experiments:
Type in all cases: functional
Conditions in all cases: read-out: Activity
[1] = tested on: SK-MEL-2; assay: Cytotoxicity against human SK-MEL-2 cells assessed as cell viability at 10 uM incubated for 48 hrs by sulforhodamine B assay relative to control
[2] = tested on: SNB-75; assay: Cytotoxicity against human SNB-75 cells assessed as cell viability at 10 uM incubated for 48 hrs by sulforhodamine B assay relative to control
[3] = tested on: IGROV-1; assay: Cytotoxicity against human IGROV-1 cells assessed as cell viability at 10 uM incubated for 48 hrs by sulforhodamine B assay relative to control
[4] = tested on: NCI-H226; assay: Cytotoxicity against human NCI-H226 cells assessed as cell viability at 10 uM incubated for 48 hrs by sulforhodamine B assay relative to control
[5] = tested on: SK-OV-3; assay: Cytotoxicity against human SK-OV-3 cells assessed as cell viability at 10 uM incubated for 48 hrs by sulforhodamine B assay relative to control
[6] = tested on: SR; assay: Cytotoxicity against human SR cells assessed as cell viability at 10 uM incubated for 48 hrs by sulforhodamine B assay relative to control
[7] = tested on: NCI/ADR-RES; assay: Cytotoxicity against human NCI/ADR-RES cells assessed as cell viability at 10 uM incubated for 48 hrs by sulforhodamine B assay relative to control
[8] = tested on: RPMI-8226; assay: Cytotoxicity against human RPMI-8226 cells assessed as cell viability at 10 uM incubated for 48 hrs by sulforhodamine B assay relative to control
[9] = tested on: K562; assay: Cytotoxicity against human K562 cells assessed as cell viability at 10 uM incubated for 48 hrs by sulforhodamine B assay relative to control
[10] = tested on: Malme-3M; assay: Cytotoxicity against human Malme-3M cells assessed as cell viability at 10 uM incubated for 48 hrs by sulforhodamine B assay relative to control
[11] = tested on: NCI-H23; assay: Cytotoxicity against human NCI-H23 cells assessed as cell viability at 10 uM incubated for 48 hrs by sulforhodamine B assay relative to control
[12] = tested on: Hs-578T; assay: Cytotoxicity against human HS-578T cells assessed as cell viability at 10 uM incubated for 48 hrs by sulforhodamine B assay relative to control
[13] = tested on: SF-268; assay: Cytotoxicity against human SF-268 cells assessed as cell viability at 10 uM incubated for 48 hrs by sulforhodamine B assay relative to control
[14] = tested on: NCI-H460; assay: Cytotoxicity against human NCI-H460 cells assessed as cell viability at 10 uM incubated for 48 hrs by sulforhodamine B assay relative to control
[15] = tested on: 786-0; assay: Cytotoxicity against human 786-0 cells assessed as cell viability at 10 uM incubated for 48 hrs by sulforhodamine B assay relative to control
[16] = tested on: ACHN; assay: Cytotoxicity against human ACHN cells assessed as cell viability at 10 uM incubated for 48 hrs by sulforhodamine B assay relative to control
[17] = tested on: MDA-MB-435; assay: Cytotoxicity against human MDA-MB-435 cells assessed as cell viability at 10 uM incubated for 48 hrs by sulforhodamine B assay relative to control
[18] = tested on: SW-620; assay: Cytotoxicity against human SW-620 cells assessed as cell viability at 10 uM incubated for 48 hrs by sulforhodamine B assay relative to control
[19] = tested on: CCRF-CEM; assay: Cytotoxicity against human CCRF-CEM cells assessed as cell viability at 10 uM incubated for 48 hrs by sulforhodamine B assay relative to control
[20] = tested on: M14; assay: Cytotoxicity against human M14 cells assessed as cell viability at 10 uM incubated for 48 hrs by sulforhodamine B assay relative to control
[21] = tested on: HCT-15; assay: Cytotoxicity against human HCT-15 cells assessed as cell viability at 10 uM incubated for 48 hrs by sulforhodamine B assay relative to control
[22] = tested on: UACC-257; assay: Cytotoxicity against human UACC-257 cells assessed as cell viability at 10 uM incubated for 48 hrs by sulforhodamine B assay relative to control
[23] = tested on: OVCAR-5; assay: Cytotoxicity against human OVCAR-5 cells assessed as cell viability at 10 uM incubated for 48 hrs by sulforhodamine B assay relative to control
[24] = tested on: SF-295; assay: Cytotoxicity against human SF-295 cells assessed as cell viability at 10 uM incubated for 48 hrs by sulforhodamine B assay relative to control
[25] = tested on: TK-10; assay: Cytotoxicity against human TK-10 cells assessed as cell viability at 10 uM incubated for 48 hrs by sulforhodamine B assay relative to control
[26] = tested on: SF-539; assay: Cytotoxicity against human SF-539 cells assessed as cell viability at 10 uM incubated for 48 hrs by sulforhodamine B assay relative to control
[27] = tested on: MDA-MB-231; assay: Cytotoxicity against human MDA-MB-231 cells assessed as cell viability at 10 uM incubated for 48 hrs by sulforhodamine B assay relative to control
[28] = tested on: A549; assay: Cytotoxicity against human A549 cells assessed as cell viability at 10 uM incubated for 48 hrs by sulforhodamine B assay relative to control
[29] = tested on: HCC 2998; assay: Cytotoxicity against human HCC 2998 cells assessed as cell viability at 10 uM incubated for 48 hrs by sulforhodamine B assay relative to control
[30] = tested on: UO-31; assay: Cytotoxicity against human UO-31 cells assessed as cell viability at 10 uM incubated for 48 hrs by sulforhodamine B assay relative to control
[31] = tested on: SK-MEL-5; assay: Cytotoxicity against human SK-MEL-5 cells assessed as cell viability at 10 uM incubated for 48 hrs by sulforhodamine B assay relative to control
[32] = tested on: NCI-H322M; assay: Cytotoxicity against human NCI-H322M cells assessed as cell viability at 10 uM incubated for 48 hrs by sulforhodamine B assay relative to control
[33] = tested on: DU-145; assay: Cytotoxicity against human DU-145 cells assessed as cell viability at 10 uM incubated for 48 hrs by sulforhodamine B assay relative to control
[34] = tested on: U-251; assay: Cytotoxicity against human U-251 cells assessed as cell viability at 10 uM incubated for 48 hrs by sulforhodamine B assay relative to control
[35] = tested on: BT-549; assay: Cytotoxicity against human BT-549 cells assessed as cell viability at 10 uM incubated for 48 hrs by sulforhodamine B assay relative to control
[36] = tested on: HL-60(TB); assay: Cytotoxicity against human HL-60(TB) cells assessed as cell viability at 10 uM incubated for 48 hrs by sulforhodamine B assay relative to control
[37] = tested on: COLO 205; assay: Cytotoxicity against human COLO 205 cells assessed as cell viability at 10 uM incubated for 48 hrs by sulforhodamine B assay relative to control
[38] = tested on: OVCAR-8; assay: Cytotoxicity against human OVCAR-8 cells assessed as cell viability at 10 uM incubated for 48 hrs by sulforhodamine B assay relative to control
[39] = tested on: MDA-MB-468; assay: Cytotoxicity against human MDA-MB-468 cells assessed as cell viability at 10 uM incubated for 48 hrs by sulforhodamine B assay relative to control
[40] = tested on: T47D; assay: Cytotoxicity against human T47D cells assessed as cell viability at 10 uM incubated for 48 hrs by sulforhodamine B assay relative to control

SMILES	viability at 10 µM [1] [%]	viability at 10 µM [2] [%]	viability at 10 µM [3] [%]	viability at 10 µM [4] [%]	viability at 10 µM [5] [%]	viability at 10 µM [6] [%]	viability at 10 µM [7] [%]	viability at 10 µM [8] [%]	viability at 10 µM [9] [%]	viability at 10 µM [10] [%]	viability at 10 µM [11] [%]	viability at 10 µM [12] [%]	viability at 10 µM [13] [%]	viability at 10 µM [14] [%]	viability at 10 µM [15] [%]	viability at 10 µM [16] [%]	viability at 10 µM [17] [%]	viability at 10 µM [18] [%]	viability at 10 µM [19] [%]	viability at 10 µM [20] [%]	other results
O=S(=O)(NCCCNc1nccc(-c2c(-c3cccc(F)c3)nc3sccn23)n1)c1ccc(O)cc1	81.3	77.8	32.6	64.3	86.4	52.6	79.1	73.6	55.1	107	87.6	85.6	62.8	52.9	65.5	43.7	33.4	82.7	67.6	70.3	viability at 10 µM [21]: 43.5%; viability at 10 µM [22]: 104%; viability at 10 µM [23]: 113%; viability at 10 µM [24]: 92%; viability at 10 µM [25]: 87.6%; viability at 10 µM [26]: 99.3%; viability at 10 µM [27]: 83.9%; viability at 10 µM [28]: 47.1%; viability at 10 µM [29]: 100%; viability at 10 µM [30]: 31.3%; viability at 10 µM [31]: 57%; viability at 10 µM [32]: 79.2%; viability at 10 µM [33]: 77.4%; viability at 10 µM [34]: 73.2%; viability at 10 µM [35]: 82.5%; viability at 10 µM [36]: 107%; viability at 10 µM [37]: 48.4%; viability at 10 µM [38]: 66.2%; viability at 10 µM [39]: 60.4%; viability at 10 µM [40]: 48.8%
O=S(=O)(NCCCNc1nccc(-c2c(-c3cccc(F)c3)nc3sccn23)n1)c1ccc(F)cc1	76.6	98.5	36.9	56.2	81.6	95.8	60	51	41.6	102	83.7	90.1	73.9	87.8	73.6	64.2	50.4	106	53.7	59.4	viability at 10 µM [21]: 44.5%; viability at 10 µM [22]: 112%; viability at 10 µM [23]: 130%; viability at 10 µM [24]: 92.7%; viability at 10 µM [25]: 99.7%; viability at 10 µM [26]: 115%; viability at 10 µM [27]: 94.2%; viability at 10 µM [28]: 74%; viability at 10 µM [29]: 116%; viability at 10 µM [30]: 38.8%; viability at 10 µM [31]: 47.3%; viability at 10 µM [32]: 100%; viability at 10 µM [33]: 84.5%; viability at 10 µM [34]: 90.6%; viability at 10 µM [35]: 79.9%; viability at 10 µM [36]: 103%; viability at 10 µM [37]: 43.7%; viability at 10 µM [38]: 49.8%; viability at 10 µM [39]: 77.4%; viability at 10 µM [40]: 18.6%
O=S(=O)(NCCCNc1nccc(-c2c(-c3cccc(F)c3)nc3sccn23)n1)c1ccccc1	65.1	102	35.2	43.2	71.5	82.2	53.4	48	34.3	82.1	76.9	89.9	71.5	65.3	74	54.1	41.7	91.3	44.1	50.5	viability at 10 µM [21]: 37.8%; viability at 10 µM [22]: 86.7%; viability at 10 µM [23]: 121%; viability at 10 µM [24]: 79.9%; viability at 10 µM [25]: 92.8%; viability at 10 µM [26]: 99.1%; viability at 10 µM [27]: 70.8%; viability at 10 µM [28]: 63%; viability at 10 µM [29]: 120%; viability at 10 µM [30]: 39%; viability at 10 µM [31]: 30.7%; viability at 10 µM [32]: 89.3%; viability at 10 µM [33]: 72.7%; viability at 10 µM [34]: 82.3%; viability at 10 µM [35]: 71.1%; viability at 10 µM [36]: 101%; viability at 10 µM [37]: 29%; viability at 10 µM [38]: 43%; viability at 10 µM [39]: 62.7%; viability at 10 µM [40]: 14.4%
O=C(NCCCNc1nccc(-c2c(-c3cccc(F)c3)nc3sccn23)n1)C1CCCCC1	78.4	87.7	37.5	63.6	87.7	70.2	72.6	80	65.4	74.7	75.7	80.2	80.2	60	62.1	45.3	50.5	82.1	73.2	57.6	viability at 10 µM [21]: 58%; viability at 10 µM [22]: 95.2%; viability at 10 µM [23]: 105%; viability at 10 µM [24]: 89.8%; viability at 10 µM [25]: 78.9%; viability at 10 µM [26]: 100%; viability at 10 µM [27]: 80.6%; viability at 10 µM [28]: 51.6%; viability at 10 µM [29]: 90.5%; viability at 10 µM [30]: 41%; viability at 10 µM [31]: 52.9%; viability at 10 µM [32]: 86%; viability at 10 µM [33]: 92.2%; viability at 10 µM [34]: 79.6%; viability at 10 µM [35]: 78.6%; viability at 10 µM [36]: 111%; viability at 10 µM [37]: 49.8%; viability at 10 µM [38]: 71.1%; viability at 10 µM [39]: 74.3%; viability at 10 µM [40]: 37.8%
